From patent US20240290636A1, “SUBSTRATE TREATING METHOD, SUBSTRATE TREATING APPARATUS, AND TREATMENT LIQUID” (SCREEN Holdings Co., Ltd., priority 2021, published 2024)

Experiments:
[1] = Vapor pressure of the sublimable substance; conditions: absolute pressure
Experimental: The sublimable substance has a vapor pressure of 0.1 Pa or more and 1.0 Pa or less at normal temperatures. Here, the normal temperatures include a room temperature. The normal temperatures fall within a temperature range of 5° C. or more and 35° C. or less, for example. The normal temperatures fall within a temperature range of 10° C. or more and 30° C. or less, for example. In this specification, the value of vapor pressure is indicated as absolute pressure relative to absolute vacuum.

[2] = Description: The ability of the solvent to dissolve the sublimable substance is indicated, for example, by the solubility of the sublimable substance in the solvent. Hereinafter, the solubility of the sublimable substance in the solvent is appropriately referred to as solubility Rm. The solubility Rm is a limit amount of sublimable substance that is soluble in a certain amount of solvent. As the solubility Rm increases, the ability of the solvent to dissolve the sublimable substance increases. Therefore, the solubility Rm is preferably high.
In general, the solubility Rm varies with temperature. The treatment liquid is used at normal temperatures. Therefore, the solubility Rm is preferably high at normal temperatures. The solubility Rm is preferably 150 vol % or more at normal temperatures.
For example, when the maximum volume of the sublimable substance soluble in the solvent of volume Q2c is Q1m, the solubility Rm is a ratio of the maximum volume Q1m to the volume Q2c. Specifically, the solubility Rm is defined by the following formula.

vapor pressure at 25° C. [1] | solubility Rm at 25° C. [2] | solubility Rm at normal temperatures [2] | SMILES
0.27 Pa | 186 vol % | ≥ 150 vol % | CC(=NO)c1ccccc1 [acetophenone oxime]
1.45 Pa |  |  | ON=C1CCCCC1 [cyclohexanone oxime]

SMILES | vapor pressure at 25° C. [1] | solubility Rm at 25° C. [2] | solubility Rm at normal temperatures [2]
CC(=NO)C(C)(C)C [pinacolone oxime] | 35.3 Pa |  | 
